Experiment: Rat topical application study: effectiveness at low dose and topical absorption
Assay type: in vivo
Conditions: rats, topical, 20 μg/100 μL
Experimental: A study was performed in rats with formulations A and B, and a control formulation. Formulation A was IMQ+penetration enhancer (P.E.) at 20 μg/100 μL. […] The Control formulation was IMQ at 20 μg/100 μL in ethanol.

Q: Which “effectiveness at a low dose” value does the source give for `CC(C)Cn1cnc2c(N)nc3ccccc3c21` [Imiquimod, 1-(2-methylpropyl)-1H-imidazo[4,5-c]quinolin-4-amine] here?
A: effective
